Laboratory results published in US20070123551A1, “Use of metabotropic glutamarate receptor 5 (mglur5) antagonists for the treatment of gastrointestinal disorders” (priority 2003, published 2007).

Tested on: WKY rats
Test: in vivo gastric distension model (barostat, ramp and tonic distension) in conscious WKY rats
Design: species or system Wistar Kyoto rats
Text: An in vivo gastric distension model is used as a model for functional gastrointestinal disorders, in particular for functional dyspepsia (Bayati A, Astin M, Ekman C, Mattsson H. Wistar Kyoto rats have impaired gastric adaptive accommodation in response to gastric distension. Gastroenterology 2003; 124 (4, suppl 1): W1471 (abstract)).
The gastric distension model enables detailed analysis of the physico-mechanical properties of the stomach, e.g. basal gastric tone, threshold for accommodation, accommodation rate, accommodation volume, and maximal gastric volume. […] Furthermore, it has been shown that patients with Functional Dyspepsia as well as Wistar Kyoto (WKY) rats have an impaired gastric adaptive response and also a lower total gastric volume as compared to healthy subjects and Sprague Dawley (SD) rats, respectively. In addition, the method has shown to be reproducible and reliable. Moreover, the advantage of the presently used barostat technique compared to other barostat techniques normally used in experimental clinical studies is that it is possible to discriminate between if a compound exerts its effect directly on gastric smooth muscles or if the effect involves the vagal reflex mechanism.
The rats are equipped with fistulas chronically implanted into the stomach. During gastric barostat experiments, a small inflatable plastic bag with a spherical shape is inserted through fistula into the glandular part of the stomach (middle to distal part in the rat). The experiments are performed in conscious rats. For detailed analysis of the physico-mechanical properties of the stomach, a combination of ramp and tonic distension paradigm is used. Pressure and volume data collected during experiments are saved for and further analysis.
In order to determine an animal's maximum gastric accommodation capacity, a balloon is inserted into the stomach of the animal and a four phase protocol which includes a start phase, a ramp phase, a tonic phase and an end phase is performed. A barostat system maintains the pressure by pumping air into and out of the balloon. The pressure applied to the balloon and the corresponding changes to the volume of the balloon are monitored throughout, e.g., using any barostat system known in the art (e.g., see Toma et al, Neurogastroenterol. Mot., 8, 19-28, 1996).
During the start phase a minimum distension pressure, e.g., 1 mmHg, is applied to the balloon until base line values are obtained. This is followed by a Ramp Phase. During this phase the pressure applied to the balloon is increased linearly with a constant increase in pressure to a preset maximum value. This second phase is then followed by the Tonic Phase at which the preset maximum pressure is kept constant. Finally, the pressure is rapidly dropped to the starting minimum distension pressure and this period is known as the End Phase.
To determine if an agent, e.g., a compound is useful in the treatment of FD, the maximum gastric accommodation rate in the WKY rat following administration of the compound is calculated. A compound of interest will be a compound that alters the maximum gastric accommodation rate in the animal and this is calculated by determining a difference in the maximum gastric accommodation rate before and after administration of the compound.
The Wistar Kyoto rats (WKY; M&B Denmark) are starved about 6 or 18 hours before each experiment depending on if the experiments are performed in the morning or in the afternoon. […]

[1] = 10 μmol/kg intravenously 3-5 min before start of ramp phase, compared to the control situation, FIG. 1

Cc1cccc(C#Cc2ccccc2)n1 [MPEP, 2-methyl-6-(phenylethynyl)-pyridine]
gastric volume during the ramp phase [1]: increase
gastric volume during the tonic phase [1]: increase
accommodation rate (the slope of volume curve during the tonic phase) (10 μmol/kg intravenously, FIG. 1): increased
maximum gastric volume (10 μmol/kg intravenously, compared to the control situation, FIG. 1): increased
accommodation capacity (10 μmol/kg intravenously, conclusion): increases
